# Source: the supplement of paper PMC11451515
# Test system: NOMO1
# Experiment: cell viability relative to DMSO control; higher = less cytotoxic
# Conditions: 48 h
# How it was run: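 NOMO1, SEM and P12-Ichikawa leukemia cells spent at least four passages adapting to each medium before use. They were seeded at 500 cells/well (NOMO1, SEM) or 1000 cells/well (P12-Ichikawa) in 5 μl in 1536-well plates and pin-dosed with library compounds in DMSO at 11 threefold steps from 47 μM down to 0.79 nM. After 48 h at 37°C, CellTiter-Glo One luminescence was read. Viability is reported as a percentage of the DMSO wells on each plate, with cell-free wells as background.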
# [1] = HPLM + 10% dialyzed FBS, 0.000781 µM
# [2] = HPLM + 10% dialyzed FBS, 0.00234 µM
# [3] = HPLM + 10% dialyzed FBS, 0.00702 µM
# [4] = HPLM + 10% dialyzed FBS, 0.0211 µM
# [5] = HPLM + 10% dialyzed FBS, 0.0632 µM
# [6] = HPLM + 10% dialyzed FBS, 0.19 µM
# [7] = HPLM + 10% dialyzed FBS, 0.569 µM
# [8] = HPLM + 10% dialyzed FBS, 1.71 µM
# [9] = HPLM + 10% dialyzed FBS, 5.12 µM
# [10] = HPLM + 10% dialyzed FBS, 15.4 µM
# [11] = HPLM + 10% dialyzed FBS, 46.1 µM
# [12] = RPMI 5 mM glucose + 10% FBS, 0.000781 µM
# [13] = RPMI 5 mM glucose + 10% FBS, 0.00234 µM
# [14] = RPMI 5 mM glucose + 10% FBS, 0.00702 µM
# [15] = RPMI 5 mM glucose + 10% FBS, 0.0211 µM
# [16] = RPMI 5 mM glucose + 10% FBS, 0.0632 µM
# [17] = RPMI 5 mM glucose + 10% FBS, 0.19 µM
# [18] = RPMI 5 mM glucose + 10% FBS, 0.569 µM
# [19] = RPMI 5 mM glucose + 10% FBS, 1.71 µM
# [20] = RPMI 5 mM glucose + 10% FBS, 5.12 µM
# [21] = RPMI 5 mM glucose + 10% FBS, 15.4 µM
# [22] = RPMI 5 mM glucose + 10% FBS, 46.1 µM
# [23] = RPMI 5 mM glucose + 10% dialyzed FBS, 0.000781 µM
# [24] = RPMI 5 mM glucose + 10% dialyzed FBS, 0.00234 µM
# [25] = RPMI 5 mM glucose + 10% dialyzed FBS, 0.00702 µM
# [26] = RPMI 5 mM glucose + 10% dialyzed FBS, 0.0211 µM
# [27] = RPMI 5 mM glucose + 10% dialyzed FBS, 0.0632 µM
# [28] = RPMI 5 mM glucose + 10% dialyzed FBS, 0.19 µM
# [29] = RPMI 5 mM glucose + 10% dialyzed FBS, 0.569 µM
# [30] = RPMI 5 mM glucose + 10% dialyzed FBS, 1.71 µM
# [31] = RPMI 5 mM glucose + 10% dialyzed FBS, 5.12 µM
# [32] = RPMI 5 mM glucose + 10% dialyzed FBS, 15.4 µM
# [33] = RPMI 5 mM glucose + 10% dialyzed FBS, 46.1 µM
Compound,cell viability [1] [%],cell viability [2] [%],cell viability [3] [%],cell viability [4] [%],cell viability [5] [%],cell viability [6] [%],cell viability [7] [%],cell viability [8] [%],cell viability [9] [%],cell viability [10] [%],cell viability [11] [%],cell viability [12] [%],cell viability [13] [%],cell viability [14] [%],cell viability [15] [%],cell viability [16] [%],cell viability [17] [%],cell viability [18] [%],cell viability [19] [%],cell viability [20] [%],cell viability [21] [%],cell viability [22] [%],cell viability [23] [%],cell viability [24] [%],cell viability [25] [%],cell viability [26] [%],cell viability [27] [%],cell viability [28] [%],cell viability [29] [%],cell viability [30] [%],cell viability [31] [%],cell viability [32] [%],cell viability [33] [%]
CC[S+](=O)([O-])Nc1ccc2c(c1)/C(=C(/Nc1ccc(CN3CCCCC3)cc1)c1ccccc1)C(=O)N2,111,114,111,110,113,85,79.3,59.1,45.9,33.8,10.4,104,102,111,117,99.3,49.3,47.5,53.1,47.6,39.9,18.5,99.2,102,121,101,104,62,63.8,54.5,44.6,37.1,18.2
C[C@H](CCC(=O)O)[C@H]1CCC2C3C[C@H](O)[C@@H]4C[C@H](O)CC[C@]4(C)C3CC[C@@]21C (some centres undefined),112,123,139,133,119,121,97.6,104,114,123,110,113,106,121,119,119,116,96.7,106,113,108,103,102,126,118,108,122,109,107,94.7,116,105,110
c1ccc2c(Cc3c[nH]c4ccccc34)c[nH]c2c1,95,106,108,93.6,112,112,95.5,89.7,87.4,80.4,54,89.8,98.3,87.8,101,97.7,86.8,96.1,89.8,85.2,85.8,78.9,99,92,106,104,93.3,97.7,93.2,94.2,88.5,84,57.1
N#C/C(=C\c1ccc(O)c(O)c1)C(=O)NCc1ccccc1,103,111,124,110,98.6,118,122,98.5,91.7,92.8,64.7,100,93.2,84.5,93.3,106,92.1,86.7,91.3,96.5,97.6,89,98,103,110,105,102,110,99.3,108,89.7,95.4,83.8
COc1cc(Nc2c(C#N)cnc3cc(OCCCN4CCN(C)CC4)c(OC)cc23)c(Cl)cc1Cl,123,121,118,111,116,105,121,83.6,52.1,9.63,7.18,109,115,126,119,126,118,112,106,82.4,13.7,7.22,103,105,112,113,116,114,112,120,85.8,26,10.6
CC(C)(S)[C@@H](N)C(=O)O,111,118,97.1,136,132,111,109,133,114,128,80.6,103,106,113,103,118,115,103,105,115,111,106,97.5,94.7,112,115,124,117,108,118,118,108,62.1
COC(=O)Nc1nc2cc(C(=O)c3ccc(F)cc3)ccc2[nH]1,103,113,102,104,102,103,84.7,54.9,32.9,52.2,40.3,107,98.1,91.4,95.3,101,97.5,98.6,83.8,34.8,83.8,83.9,99.3,103,94.1,107,89.3,93,90.9,65.3,31.9,74.1,72.9
O=C(Nc1c[nH]nc1-c1nc2cc(CN3CCOCC3)ccc2[nH]1)NC1CC1,91.3,111,113,95.6,81.1,102,104,104,97.9,51,3.89,85.9,103,97.1,85.5,56.3,55.3,78.7,84.9,89.4,61.2,4.23,88.3,102,92.6,93.7,67.1,66.7,84,83,86.7,54.5,4.36
